Data reported in US6911443B2 (Bayer Aktiengesellschaft, priority 2000, dated 2005).
Read-outs that look alike come from different tables or passages of the source.

Molecular target: T1, human Syk (GST-Syk) (Homo sapiens, UniProt P43405)
T1 construct: A cDNA fragment encoding human Syk openreading frame was cloned; made in house; host or cells: Sf21 insect cells (baculovirus, transfer vector pAcG2T)
Experiment: Syk tyrosine kinase inhibitory assay
Assay type: biochemical
Source text: [Syk Tyrosine Kinase Inhibitory Assay]
(1) Preparation of Syk Protein
A cDNA fragment encoding human Syk openreading frame was cloned from total RNA of human Burkitt's lymphoma B cell lines, Raji (American Type Culture Collection), with the use of RT-PCR method. The cDNA fragment was inserted into pAcG2T (Pharmingen, San Diego, Calif.) to construct a baculovirus transfer vector. Then the vector, together with the linearized baculovirus (BaculoGold™, Pharmingen), was used to transfect Sf21 cells (Invitrogen, San Diego, Calif.).
Generated recombinant baculovirus was cloned and amplified in Sf21 cells. Sf21 cells were infected with this amplified high titer virus to produce a chimeric protein of Syk kinase fused by glutathione-S-transferase (GST).
The resulting GST-Syk was purified with the use of glutathione column (Amersham Pharmacia Biotech AB, Uppsala, Sweden) according to the manufacturer's instruction.
(2) Synthesize of a Peptide
Next, a peptide fragment of 30 residues including two tyrosine residues, […], was synthesized by a peptide synthesizer. The N-terminal of the fragment was then biotinylated to obtain biotinylated activation loop peptide (AL).
(3) The Measurement of Syk Tyrosine Kinase Activity
All reagents were diluted with the Syk kinase assay buffer (50 mM Tris-HCl (pH 8.0), 10 mM MgCl2, 0.1 mM Na3VO4, 0.1% BSA, 1 mM DTT). First, a mixture (35 μl) including […] of GST-Syk and 0.5 μg of AL was put in each well in 96-well plates. Then 5 μl of a test compound in the presence of 2.5% dimethylsulfoxide (DMSO) was added to each well. To this mixture was added […] (10 μl) to initiate the kinase reaction. The final reaction mixture (50 μl) consists of 0.65 nM GST-Syk, 3 μM AL, 30 μM ATP, a test compound, 0.25% DMSO, and a Syk kinase assay buffer.
The mixture was incubated for 1 hr at room temperature, and the reaction was terminated by the addition of 120 μl of termination buffer (50 mM Tris-HCl (pH 8.0), 10 mMEDTA, 500 mM NaCl, 0.1% BSA). The mixture was transferred to streptavidin-coated plates and incubated for 30 min at room temperature to combine biotin-AL to the plates. After washing the plates with Tris-buffered saline (TBS) (50 mM Tris-HCl (pH 8.0), 138 mM NaCl, 2.7 mM KCl) containing 0.05% Tween-20 for 3 times, 100 μl of antibody solution consisting of 50 mM Tris-HCl (pH 8.0), 138 mM NaCl, 2.7 mM KCl, 1% BSA, 60 ng/ml anti-phosphotyrosine monoclonal antibody, 4G10 (Upstate Biotechnology), which is labeled with europium by Amersham Pharmacia's kit in advance, was added and incubated at room temperature for 60 min. After washing, 100 μl of enhancement solution (Amersham pharmacia Biotech) was added and then time-resolved fluorescence was measured by multi-label counter ARVO (Wallac Oy, Finland) at 340 nm for excitation and 615 nm for emission with 400 msec of delay and 400 msec of window.

[1] = in vitro, compounds as yielded by solid phase synthesis, purity about 40 to 90%, read-out: Activity grade (IC50 class)
[2] = Table 17, IC50 classes, read-out: Activity grade
[3] = Table 13, read-out: Activity grade
[4] = in vitro, compounds as yielded by solid phase synthesis, purity about 40 to 90%
[5] = Table 11, read-out: Activity grade
[6] = Table 16, read-out: Activity grade
[7] = Table 14, read-out: Activity grade

Structure (SMILES)	IC50 [1] [µM]	also measured
CCOC(=O)CSc1nc(-c2ccc(OC)c(OC)c2)cc2nccn12 [Example 9-89]	0.5 to 2	
COc1ccc(-c2cc3ncnn3c(Nc3ccc(CCC(=O)O)cc3)n2)cc1OC [Example 9-20]	< 0.5	
COc1ccc(-c2cc3nccn3c(N(C)c3ccc(Cl)cc3)n2)cc1OC [Example 11-45]	0.5 to 2	
COc1ccc(-c2cc3nccn3c(SC(C)C)n2)cc1OC [Example 9-9]	< 0.5	
COc1ccc(Nc2nc(-c3ccc(OC)c(OC)c3)cc3nccn23)cc1NCCN(C)CCO [Example 11-112]	0.5 to 2	
CCSc1nc(-c2ccc(OC)c(OC)c2)cc2nc(C(N)=O)cn12 [Example 28]		IC50 [2]: 0.5 to 2 µM
COc1ccc(-c2cc3nccn3c(SCc3cccc(C(F)(F)F)c3)n2)cc1OC [Example 14-13]		IC50 [3]: 2 to 10 µM
CCSc1nc(-c2ccc(F)c(F)c2)cc2nccn12 [Example 8-7]		Activity grade (IC50 class) [4]: C-D
COc1ccc(-c2cc3nccn3c(Nc3ccccc3)n2)cc1OC(C)=O [Example 12-17]		IC50 [5]: < 0.5 µM
COc1ccc(-c2cc3nccn3c(NCCc3ccccn3)n2)cc1OC [Example 9-84]	0.5 to 2	
COC(=O)C(C)(C)Cc1ccc(Nc2nc(-c3ccc(OC)c(OC)c3)cc3nccn23)cc1 [Example 11-4]	< 0.5	
COc1ccc(-c2cc3nccn3c(N3C(=O)c4ccccc43)n2)cc1OC [Example 9]	2 to 10	
COc1ccc(-c2cc3nccn3c(N(C)c3ccncc3)n2)cc1OC [Example 36]		IC50 [2]: 2 to 10 µM
COc1ccc(-c2cc3ncnn3c(Nc3ccccc3C(N)=O)n2)cc1OC [Example 11-102]	< 0.5	
COC(=O)CSc1nc(-c2ccc(OC)c(OC)c2)cc2nccn12 [Example 9-88]	< 0.5	
COc1ccc(-c2cc3nccn3c(Nc3ccc(C(=O)NCCCO)cc3)n2)cc1OC [Example 7]		IC50 [2]: < 0.5 µM
COc1ccc(Nc2nc(-c3ccc(N4CCCC4)c(OC)c3)cc3nccn23)cc1 [Example 17-16]		IC50 [6]: < 0.5 µM
COc1ccc(-c2cc3nccn3c(Nc3cccc(N)c3)n2)cc1OC [Example 11-124]	< 0.5	
COc1ccc(-c2cc3nccn3c(Nc3cccc(C(N)=O)c3)n2)cc1OC [Example 11-11]	< 0.5	
COc1ccc(-c2cc3nccn3c(NC3CCCCC3)n2)cc1OC [Example 15-4]		IC50 [7]: 0.5 to 2 µM
CCSc1nc(-c2ccc(NCCCN3CCOCC3)c(OC)c2)cc2nccn12 [Example 17-12]		IC50 [6]: < 0.5 µM

Structure (SMILES)	IC50 [1] [µM]	also measured
COC(=O)[C@H](Cc1c[nH]c2ccccc12)Nc1nc(-c2ccc(OC)c(OC)c2)cc2nccn12 [Example 9-85]	2 to 10	
COc1ccc(-c2cc3nccn3c(Nc3cccc([N+](=O)[O-])c3)n2)cc1OC [Example 11-70]	< 0.5	
COc1ccc(-c2cc3nccn3c(Nc3ccc(CCC4=NC(C)(C)CO4)cc3)n2)cc1OC [Example 9-22]	< 0.5	
CNS(=O)(=O)c1ccccc1Nc1nc(-c2ccc(OC)c(OC)c2)cc2nccn12 [Example 11-122]	< 0.5	
COc1ccc(-c2cc3nccn3c(NCCN(C)C)n2)cc1OC [Example 9-3]	2 to 10	
COc1ccc(Nc2nc(-c3ccc(OC)c(OC)c3)cc3ncnn23)cc1 [Example 12-15]		IC50 [5]: < 0.5 µM
COc1ccc(-c2cc3nccn3c(Nc3ccc(I)cc3C(N)=O)n2)cc1OC [Example 11-78]	< 0.5	
CCOC(=O)N1CCN(c2nc(-c3ccc(OC)c(OC)c3)cc3nccn23)CC1 [Example 9-72]	2 to 10	
COc1ccc(-c2cc3nccn3c(Nc3cnccc3C(N)=O)n2)cc1OC [Example 12-45]		IC50 [5]: < 0.5 µM
c1ccc(Nc2nc(-c3ccc4c(c3)OCO4)cc3nccn23)cc1 [Example 12-22]		IC50 [5]: 0.5 to 2 µM
COc1ccc(-c2cc3nccn3c(Sc3ccncc3C(=O)O)n2)cc1OC [Example 15-2]		IC50 [7]: < 0.5 µM
COc1ccc(-c2cc3nccn3c(Nc3ccccc3)n2)cc1[N+](=O)[O-] [Example 12-32]		IC50 [5]: < 0.5 µM
COc1ccc(-c2cc3nccn3c(SCCc3ccccc3)n2)cc1OC [Example 14-25]		IC50 [3]: 0.5 to 2 µM
CCCSc1nc(-c2ccc(OC)c(OC)c2)cc2nccn12 [Example 14-17]		IC50 [3]: < 0.5 µM
COC(=O)c1cc(Br)ccc1Nc1nc(-c2ccc(OC)c(OC)c2)cc2nccn12 [Example 11-86]	< 0.5	
COc1ccc(-c2cc3nccn3c(N3CCN(c4ccccc4)CC3)n2)cc1OC [Example 9-33]	2 to 10	
COc1ccc(-c2cc3nccn3c(SCCN(C)C)n2)cc1OC [Example 14-27]		IC50 [3]: < 0.5 µM
COC(=O)CCSc1nc(-c2ccc(OC)c(OC)c2)cc2nccn12 [Example 9-90]	< 0.5	
COc1ccc(-c2cc3nccn3c(NC3CCCC[C@@H]3N)n2)cc1OC (stereo partly drawn) [Example 9-86]	0.5 to 2	
CCSc1nc(-c2ccc(O)c(OC)c2)cc2nccn12 [material for Example 3, 4-(5-Ethylsulfanyl-imidazo[1,2-c]pyrimidin-7-yl)-2-methoxyphenol]	< 0.5	
CCSc1nc(-c2ccc(NC)c(OC)c2)cc2nccn12 [Example 17-14]		IC50 [6]: 0.5 to 2 µM

Structure (SMILES)	IC50 [1] [µM]	also measured
COc1ccc(-c2cc3nccn3c(Nc3ccccc3)n2)cc1NC(=O)CCC(=O)O [Example 2]		IC50 [2]: < 0.5 µM
COc1ccc(-c2cc3nccn3c(Nc3ccccc3[N+](=O)[O-])n2)cc1OC [Example 11-56]	< 0.5	
COc1ccc(-c2cc3nccn3c(N3CCN(c4ncccn4)CC3)n2)cc1OC [Example 9-41]	0.5 to 2	
COc1ccc(-c2cc3nccn3c(Nc3ccc(CCN4CCOCC4)cc3)n2)cc1OC [Example 12-1]		IC50 [5]: 0.5 to 2 µM
CCSc1nc(-c2cccs2)cc2nccn12 [Example 8-3]	0.5 to 2	
COc1ccc(-c2cc3nccn3c(Sc3ccncc3N)n2)cc1OC [Example 16-7]		IC50 (Table 15, read-out: Activity grade): < 0.5 µM
COc1ccc(-c2cc3ncnn3c(Nc3ccc(CCCC(=O)O)cc3C(N)=O)n2)cc1OC [Example 11-106]	< 0.5	
CCSc1nc(-c2ccc(OC)c(OCC3CCCCO3)c2)cc2nccn12 (stereo not drawn) [Example 4-5]	0.5 to 2	
COc1ccc(-c2cc3nccn3c(Nc3ccc(S(=O)(=O)N4CCOCC4)cc3)n2)cc1OC [Example 11-116]	< 0.5	
COc1ccc(-c2cc3nccn3c(Nc3cccnc3)n2)cc1OC [Example 12-7]		IC50 [5]: < 0.5 µM
CNC(=O)c1cccc(Nc2nc(-c3ccc(OC)c(OC)c3)cc3nccn23)c1 [Example 11-72]	< 0.5	
COc1ccc(-c2cc3nccn3c(N3CCC(=O)CC3)n2)cc1OC [Example 9-58]	0.5 to 2	
COc1ccc(-c2cc3nccn3c(Nc3ccc(CCCC(=O)O)cc3)n2)cc1OC [Example 11-21]	< 0.5	
COc1ccc(-c2cc3nccn3c(Nc3ccc(Br)cn3)n2)cc1OC [Example 12-9]		IC50 [5]: < 0.5 µM
CCSc1nc(-c2ccc(OC)c(OC(C)C)c2)cc2nccn12 [Example 4-3]	< 0.5	
CCOCCOc1ccc(-c2cc3nccn3c(SCC)n2)cc1OCCOCC [Example 6-2]	0.5 to 2	
CCSc1nc(-c2ccc(OC3CCCCC3)c(OC)c2)cc2nccn12 [Example 3-6]	0.5 to 2	
COc1ccc(-c2cc3nccn3c(Sc3ccc(C(F)(F)F)cn3)n2)cc1OC [Example 15-1]		IC50 [7]: < 0.5 µM
COc1ccc(-c2cc3nccn3c(N3CCC(C(=O)c4ccc(F)cc4)CC3)n2)cc1OC [Example 9-61]		Activity grade (IC50 class) [4]: C-D

Further lines, with some results ahead:

IC50 [1] [µM]	Structure (SMILES)	also measured
< 0.5	COc1ccc(-c2cc3nccn3c(Sc3nccn3C)n2)cc1OC [Example 13-12]	
< 0.5	COc1ccc(-c2cc3nccn3c(Sc3ccc(CCC(=O)O)cc3)n2)cc1O [Example 13-24]	
2 to 10	COc1ccc(-c2cc3nccn3c(Sc3cccc(Cl)c3Cl)n2)cc1OC [Example 13-5]	
< 0.5	COc1ccc(-c2cc3nccn3c(Sc3nc[nH]n3)n2)cc1OC [Example 13-29]	
< 0.5	COc1ccc(-c2cc3nccn3c(Sc3ccc(N)cc3)n2)cc1OC [Example 13-4]	
